{"source": "patent US9115341B2", "about": "“Method for expanding hematopoietic stem cells using heterocyclic compound” (Nissan Chemical Industries, Ltd., priority 2007, dated 2015)", "system": "human cord blood-derived CD34+ cells", "assay": "Expansion of CD34+ cells from human cord blood-derived CD34+ cells", "assay_type": "cell-based", "details": "168 h, number of CD34+ cells relative to absence of compound, 7 days, StemSpan SFEM with 100 ng/mL SCF, read-out: Expansion efficiency; for fold induction at 0.3 µg/mL: 0.3 μg/mL compound; for fold induction at 1 µg/mL: 1 μg/mL compound", "method": "Commercially available human cord blood-derived CD34^+ cells (Cambrex Bio Science Walkersville) were plated on a 12-well plate (Corning) (from 5000 to 10000 cells/1 ml/well). As the culture medium, StemSpan SFEM (Stemcell Technologies) containing 100 ng/mL SCF (R&D Systems) was used, and Compounds Nos. 1 to 37 dissolved in dimethyl sulfoxide were added in an amount of 0.1% (v/v) to a final concentration of 0.3 or 1 μg/mL.\nAfter the cells were incubated in liquid culture at 37° C. for 7 days in a CO2 incubator (in an atmosphere containing 5 vol % CO2), the total number of cells was counted by trypan blue assay (Invitrogen) or Flow-Count™ fluorosphere assay (Beckman Coulter). The number of CD34^+ cells was calculated as follows. After the incubation, the cells in the liquid culture was stained with a CD34 antibody (PE, Becton, Dickinson and Company). The stained cells were analyzed with a flow cytometer (Beckman Coulter) to determined the proportion of CD34^+ cells, which was multiplied by the total number of cells to calculate the number of CD34^+ cells.\nThe expansion efficiencies in the presence of 0.3 μg/mL or 1 μg/mL of compounds based on the number of CD34^+ cells in the absence of them are shown in Table 2 on a scale of A for expansion efficiencies of 3 or greater, and B for expansion efficiencies of at least 2 and less than 3.", "data": [{"smiles": "C/C(=N\\NC(=O)c1ccc(C(=O)NCCc2cccnc2)s1)c1csc(-c2ccc(OC(F)(F)F)cc2)c1O", "note": "[Compound 32]", "values": [{"measurement": "fold induction at 0.3 µg/mL", "value": "≥ 3"}]}, {"smiles": "C/C(=N\\NC(=O)c1ccc(C(=O)N2CCCC2)s1)c1csc(-c2ccc(C(F)(F)F)cc2)c1O", "note": "[Compound 15]", "values": [{"measurement": "fold induction at 1 µg/mL", "value": "≥ 3"}]}, {"smiles": "C/C(=N\\NC(=S)Nc1cccc(C(=O)O)c1)c1nn(C)c(-c2ccc(C(F)(F)F)cc2)c1O", "note": "[Compound 18]", "values": [{"measurement": "fold induction at 1 µg/mL", "value": "≥ 3"}]}, {"smiles": "C/C(=N\\NC(=O)c1ccc(C(=O)O)s1)c1csc(-c2ccc(C(F)(F)F)cc2)c1O", "note": "[Compound 7]", "values": [{"measurement": "fold induction at 1 µg/mL", "value": "≥ 3"}]}, {"smiles": "C/C(=N\\NC(=O)c1ccc(C(=O)O)s1)c1csc(-c2ccc(Cl)c(Cl)c2)c1O", "note": "[Compound 6]", "values": [{"measurement": "fold induction at 1 µg/mL", "value": "2 to 3"}]}, {"smiles": "C/C(=N\\NC(=O)c1ccc(C(=O)O)cc1N)c1nn(C)c(-c2ccc(C(F)(F)F)cc2)c1O", "note": "[Compound 24]", "values": [{"measurement": "fold induction at 1 µg/mL", "value": "≥ 3"}]}, {"smiles": "C/C(=N\\NC(=O)c1ccc(C(=O)NCc2cc(C)n(C)n2)s1)c1nn(C)c(-c2ccc(C(F)(F)F)cc2)c1O", "note": "[Compound 37]", "values": [{"measurement": "fold induction at 1 µg/mL", "value": "≥ 3"}]}, {"smiles": "C/C(=N\\NC(=O)c1ccc(C(=O)NCCc2ccncc2)s1)c1csc(-c2ccc(Cl)c(Cl)c2)c1O", "note": "[Compound 28]", "values": [{"measurement": "fold induction at 1 µg/mL", "value": "≥ 3"}]}, {"smiles": "C/C(=N\\NC(=O)c1ccc(C(=O)NCCO)s1)c1csc(-c2ccc(C(F)(F)F)cc2)c1O", "note": "[Compound 19]", "values": [{"measurement": "fold induction at 1 µg/mL", "value": "≥ 3"}]}, {"smiles": "C/C(=N\\NC(=O)c1ccc(C(=O)NCCc2ccnn2C)s1)c1csc(-c2ccc(Cl)c(Cl)c2)c1O", "note": "[Compound 35]", "values": [{"measurement": "fold induction at 1 µg/mL", "value": "≥ 3"}]}, {"smiles": "C/C(=N\\NC(=S)Nc1cccc(C(=O)O)c1)c1csc(-c2ccc(C(C)(C)C)cc2)c1O", "note": "[Compound 20]", "values": [{"measurement": "fold induction at 1 µg/mL", "value": "≥ 3"}]}, {"smiles": "C/C(=N\\NC(=S)Nc1ccc(C(=O)O)c(Cl)c1)c1csc(-c2ccc(Cl)c(Cl)c2)c1O", "note": "[Compound 14]", "values": [{"measurement": "fold induction at 1 µg/mL", "value": "≥ 3"}]}, {"smiles": "C/C(=N\\NC(=O)c1ccc(C(=O)NCCCc2ccncc2)s1)c1csc(-c2ccc(Cl)c(Cl)c2)c1O", "note": "[Compound 34]", "values": [{"measurement": "fold induction at 1 µg/mL", "value": "≥ 3"}]}, {"smiles": "C/C(=N\\NC(=S)Nc1ccc(C(=O)O)c(Cl)c1)c1nn(C)c(-c2ccc(C(F)(F)F)cc2)c1O", "note": "[Compound 13]", "values": [{"measurement": "fold induction at 1 µg/mL", "value": "≥ 3"}]}, {"smiles": "C/C(=N\\NC(=O)c1ccc(C(=O)NCCCc2ccncc2)s1)c1csc(-c2ccc(C(F)(F)F)cc2)c1O", "note": "[Compound 36]", "values": [{"measurement": "fold induction at 1 µg/mL", "value": "≥ 3"}]}, {"smiles": "C/C(=N\\NC(=S)Nc1ccc(S(N)(=O)=O)cc1)c1nn(C)c(-c2ccc(Cl)c(Cl)c2)c1O", "note": "[Compound 23]", "values": [{"measurement": "fold induction at 1 µg/mL", "value": "2 to 3"}]}, {"smiles": "C/C(=N\\NC(=O)c1ccc(C(=O)NCCc2ccncc2)s1)c1csc(-c2ccc(OC(F)(F)F)cc2)c1O", "note": "[Compound 30]", "values": [{"measurement": "fold induction at 0.3 µg/mL", "value": "≥ 3"}]}, {"smiles": "C/C(=N\\NC(=O)c1ccc(C(=O)NCCc2ccncc2)s1)c1csc(-c2ccc(C(F)(F)F)cc2)c1O", "note": "[Compound 31]", "values": [{"measurement": "fold induction at 0.3 µg/mL", "value": "≥ 3"}]}, {"smiles": "C/C(=N\\NC(=O)c1ccc(C(=O)NCC(=O)O)s1)c1csc(-c2ccc(OC(F)(F)F)cc2)c1O", "note": "[Compound 25]", "values": [{"measurement": "fold induction at 1 µg/mL", "value": "≥ 3"}]}, {"smiles": "C/C(=N\\NC(=S)Nc1cccc(C(=O)O)c1)c1csc(-c2ccc(C)c(C)c2)c1O", "note": "[Compound 21]", "values": [{"measurement": "fold induction at 1 µg/mL", "value": "≥ 3"}]}, {"smiles": "C/C(=N\\NC(=O)c1ccc(C(=O)NCCc2ccccn2)s1)c1csc(-c2ccc(Cl)c(Cl)c2)c1O", "note": "[Compound 27]", "values": [{"measurement": "fold induction at 0.3 µg/mL", "value": "2 to 3"}]}, {"smiles": "C/C(=N\\NC(=S)Nc1cccc(C(=O)O)c1)c1csc(-c2ccc(Cl)c(Cl)c2)c1O", "note": "[Compound 16]", "values": [{"measurement": "fold induction at 1 µg/mL", "value": "2 to 3"}]}, {"smiles": "C/C(=N\\NC(=S)Nc1ccc(C(=O)O)cc1)c1csc(-c2ccc(C(F)(F)F)cc2)c1O", "note": "[Compound 3]", "values": [{"measurement": "fold induction at 1 µg/mL", "value": "≥ 3"}]}, {"smiles": "C/C(=N\\NC(=S)Nc1ccc(C(=O)O)c([N+](=O)[O-])c1)c1csc(-c2ccc(C(C)(C)C)cc2)c1O", "note": "[Compound 10]", "values": [{"measurement": "fold induction at 1 µg/mL", "value": "≥ 3"}]}, {"smiles": "C/C(=N\\NC(=O)c1ccc(C(=O)O)c([NH2+][O-])c1)c1csc(-c2ccc(C(C)(C)C)cc2)c1O", "note": "[Compound 4]", "values": [{"measurement": "fold induction at 1 µg/mL", "value": "≥ 3"}]}, {"smiles": "C/C(=N\\NC(=O)c1ccc(C(=O)O)c([NH2+][O-])c1)c1csc(-c2ccc(Cl)c(Cl)c2)c1O", "note": "[Compound 5]", "values": [{"measurement": "fold induction at 1 µg/mL", "value": "2 to 3"}]}, {"smiles": "C/C(=N\\NC(=S)Nc1ccc(C(=O)O)c([N+](=O)[O-])c1)c1csc(-c2ccc(C(F)(F)F)cc2)c1O", "note": "[Compound 12]", "values": [{"measurement": "fold induction at 1 µg/mL", "value": "≥ 3"}]}, {"smiles": "C/C(=N\\NC(=O)c1ccc(C(=O)NCCc2cccnc2)s1)c1csc(-c2ccc(C(F)(F)F)cc2)c1O", "note": "[Compound 33]", "values": [{"measurement": "fold induction at 0.3 µg/mL", "value": "≥ 3"}]}, {"smiles": "C/C(=N\\NC(=O)c1ccc(C(=O)O)cc1)c1csc(-c2ccc(Cl)c(Cl)c2)c1O", "note": "[Compound 2]", "values": [{"measurement": "fold induction at 1 µg/mL", "value": "2 to 3"}]}, {"smiles": "C/C(=N\\NC(=S)Nc1ccc(C(=O)O)c([N+](=O)[O-])c1)c1csc(-c2ccc(Cl)c(Cl)c2)c1O", "note": "[Compound 11]", "values": [{"measurement": "fold induction at 1 µg/mL", "value": "≥ 3"}]}, {"smiles": "C/C(=N\\NC(=O)c1ccc(C(=O)O)c([NH2+][O-])c1)c1csc(-c2ccc(C(F)(F)F)cc2)c1O", "note": "[Compound 8]", "values": [{"measurement": "fold induction at 1 µg/mL", "value": "≥ 3"}]}, {"smiles": "C/C(=N\\NC(=S)Nc1ccc(C(=O)O)cc1)c1nn(C)c(-c2ccc(C(F)(F)F)cc2)c1O", "note": "[Compound 1]", "values": [{"measurement": "fold induction at 1 µg/mL", "value": "≥ 3"}]}, {"smiles": "C/C(=N\\NC(=O)c1ccc(C(=O)NC(C)C)s1)c1nn(C)c(-c2ccc(Cl)c(Cl)c2)c1O", "note": "[Compound 26]", "values": [{"measurement": "fold induction at 1 µg/mL", "value": "≥ 3"}]}, {"smiles": "C/C(=N\\NC(=S)Nc1ccc(C(=O)O)cc1)c1csc(-c2ccc(C)c(C)c2)c1O", "note": "[Compound 22]", "values": [{"measurement": "fold induction at 1 µg/mL", "value": "≥ 3"}]}, {"smiles": "C/C(=N\\NC(=O)c1ccc(C(=O)NCCc2cccnc2)s1)c1csc(-c2ccc(Cl)c(Cl)c2)c1O", "note": "[Compound 29]", "values": [{"measurement": "fold induction at 0.3 µg/mL", "value": "≥ 3"}]}]}
